# Assay results: publication PMC7252619 (PLoS ONE, 2020)
# pIC50: −log10 of the molar value. Like-named read-outs stand apart in the source and are kept apart here.
# Legend:
# [1] = biological target: T1, EPHB4 (Homo sapiens, UniProt P54760); assay: Kinase activity test (ReactionBiology), % enzyme activity relative to DMSO; format: biochemical; conditions: EPHB4;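 further: EPHB4 was one of ten selected kinases in the screening panel, with enzyme activity expressed as a percentage of DMSO controls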
# T1 construct: purchased ReactionBiology
# T1 sequence (P54760 16-987): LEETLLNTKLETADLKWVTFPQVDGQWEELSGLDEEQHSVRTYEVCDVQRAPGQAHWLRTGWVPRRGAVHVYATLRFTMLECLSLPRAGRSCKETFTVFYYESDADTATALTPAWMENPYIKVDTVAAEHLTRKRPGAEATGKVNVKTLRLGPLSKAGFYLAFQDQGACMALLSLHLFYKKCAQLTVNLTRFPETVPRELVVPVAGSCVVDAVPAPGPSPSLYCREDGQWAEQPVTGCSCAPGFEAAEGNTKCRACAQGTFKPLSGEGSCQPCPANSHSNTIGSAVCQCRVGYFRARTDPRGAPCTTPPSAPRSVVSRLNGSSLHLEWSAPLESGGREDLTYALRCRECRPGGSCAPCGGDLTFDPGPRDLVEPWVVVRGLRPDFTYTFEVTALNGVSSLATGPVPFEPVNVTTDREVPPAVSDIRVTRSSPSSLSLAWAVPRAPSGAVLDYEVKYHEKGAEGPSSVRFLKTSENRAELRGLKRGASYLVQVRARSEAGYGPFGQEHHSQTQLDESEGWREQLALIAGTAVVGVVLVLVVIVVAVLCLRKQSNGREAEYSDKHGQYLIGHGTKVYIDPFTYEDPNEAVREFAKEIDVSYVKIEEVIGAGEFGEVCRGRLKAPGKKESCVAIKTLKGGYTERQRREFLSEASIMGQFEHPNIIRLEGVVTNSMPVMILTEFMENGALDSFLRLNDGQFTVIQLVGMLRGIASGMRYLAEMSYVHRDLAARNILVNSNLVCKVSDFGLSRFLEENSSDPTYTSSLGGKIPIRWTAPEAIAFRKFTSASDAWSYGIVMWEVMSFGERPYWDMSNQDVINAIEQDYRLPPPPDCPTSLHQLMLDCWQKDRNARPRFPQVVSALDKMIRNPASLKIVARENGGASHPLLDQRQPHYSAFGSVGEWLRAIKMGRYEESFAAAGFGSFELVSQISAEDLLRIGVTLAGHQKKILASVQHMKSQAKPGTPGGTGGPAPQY
# [2] = WST-1 cytotoxicity assay on Jurkat cells (T-cell line); format: cell-based, human; conditions: human, Jurkat cells (T-cell line), mean of 4 independent measures, read-out: Cytotoxicity, WST-1 Jurkat IC 50 (µM) Mean
# [3] = biological target: T2, NEK2 (Homo sapiens, UniProt P51955); assay: Kinase activity test (ReactionBiology), % enzyme activity relative to DMSO; format: biochemical; conditions: NEK2;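 further: FDA-approved drugs chosen by structure-based repositioning, each screened at 10 or 1 µM for kinase activity, expressed as percent of DMSO controls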
# T2 construct: purchased ReactionBiology
# T2 sequence (P51955 1-445): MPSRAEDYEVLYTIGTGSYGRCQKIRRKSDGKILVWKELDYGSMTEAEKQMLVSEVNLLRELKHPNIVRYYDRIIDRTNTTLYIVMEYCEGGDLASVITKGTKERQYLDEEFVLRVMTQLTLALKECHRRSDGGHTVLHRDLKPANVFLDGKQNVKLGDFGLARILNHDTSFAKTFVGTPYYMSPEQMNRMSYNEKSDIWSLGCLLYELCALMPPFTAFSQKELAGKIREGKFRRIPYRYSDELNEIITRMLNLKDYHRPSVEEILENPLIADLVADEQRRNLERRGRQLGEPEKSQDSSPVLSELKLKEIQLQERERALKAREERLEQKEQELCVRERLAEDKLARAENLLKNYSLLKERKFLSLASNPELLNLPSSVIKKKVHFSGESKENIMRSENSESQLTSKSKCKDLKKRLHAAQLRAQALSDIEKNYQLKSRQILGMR
# [4] = biological target: T3, CK1d (Homo sapiens, UniProt P48730); assay: as above; format: biochemical; conditions: CK1d
# T3 construct: purchased ReactionBiology
# T3 sequence (P48730 whole entry): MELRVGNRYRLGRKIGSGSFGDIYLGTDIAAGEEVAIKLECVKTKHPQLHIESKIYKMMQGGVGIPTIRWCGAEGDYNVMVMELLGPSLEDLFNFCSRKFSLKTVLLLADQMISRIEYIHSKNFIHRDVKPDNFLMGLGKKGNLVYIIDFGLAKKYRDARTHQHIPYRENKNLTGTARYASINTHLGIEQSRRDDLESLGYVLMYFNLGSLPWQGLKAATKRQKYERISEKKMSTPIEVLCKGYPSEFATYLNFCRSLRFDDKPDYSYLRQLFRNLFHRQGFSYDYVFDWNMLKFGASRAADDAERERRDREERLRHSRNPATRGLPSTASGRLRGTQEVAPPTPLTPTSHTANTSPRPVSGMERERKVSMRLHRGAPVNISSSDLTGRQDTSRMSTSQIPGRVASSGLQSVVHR
# [5] = WST-1 cytotoxicity assay on RPMI1788 cells (B-cell line); format: cell-based, human; conditions: human, RPMI1788 cells (B-cell line), mean of 4 independent measures, read-out: Cytotoxicity, WST-1 RPMI 1788 IC 50 (µM) Mean
# Method: (§1) Compounds were prepared as 10 mM stock solutions in dimethylsulfoxide (DMSO)and were tested at 50-10-1-0.1-0.01 and 0.001 μM in the 4 assays.
# The human B cell line RPMI1788 (American Type Culture Collection, USA) and the human T cell line Jurkat (European Collection of Cell Cultures, ECACC, England) were maintained in RPMI1640 culture medium (BioWhittaker®, Lonza, Verviers, Belgium) containing 10% foetal calf serum (FCS, HyClone® Thermo Scientific, United Kingdom) and 5 μg/mL gentamicin sulphate (BioWhittaker®, Lonza, Verviers, Belgium) at 37°C and 5% CO2.
# WST-1 assays on RPMI-1788 cells and Jurkat cells were performed as follows: 20 μL of test compound dilution were added to each well containing exponential growing cells and the plates were incubated for 48 h at 37°C, 5% CO2. Untreated cells and positive control (1% triton X-100, for the last 15 min) served as reference for maximum and minimum viability. At the end of incubation 100 μL of supernatant were removed and replaced by 10 μL of WST-1 solution (Cell Proliferation Reagent WST-1, Roche Applied Science).
# [6] = biological target: T4, DAPK1 (Homo sapiens, UniProt P53355); assay: Kinase activity test (ReactionBiology), % enzyme activity relative to DMSO; format: biochemical; conditions: DAPK1
# T4 construct: purchased ReactionBiology
# T4 sequence (P53355 whole entry): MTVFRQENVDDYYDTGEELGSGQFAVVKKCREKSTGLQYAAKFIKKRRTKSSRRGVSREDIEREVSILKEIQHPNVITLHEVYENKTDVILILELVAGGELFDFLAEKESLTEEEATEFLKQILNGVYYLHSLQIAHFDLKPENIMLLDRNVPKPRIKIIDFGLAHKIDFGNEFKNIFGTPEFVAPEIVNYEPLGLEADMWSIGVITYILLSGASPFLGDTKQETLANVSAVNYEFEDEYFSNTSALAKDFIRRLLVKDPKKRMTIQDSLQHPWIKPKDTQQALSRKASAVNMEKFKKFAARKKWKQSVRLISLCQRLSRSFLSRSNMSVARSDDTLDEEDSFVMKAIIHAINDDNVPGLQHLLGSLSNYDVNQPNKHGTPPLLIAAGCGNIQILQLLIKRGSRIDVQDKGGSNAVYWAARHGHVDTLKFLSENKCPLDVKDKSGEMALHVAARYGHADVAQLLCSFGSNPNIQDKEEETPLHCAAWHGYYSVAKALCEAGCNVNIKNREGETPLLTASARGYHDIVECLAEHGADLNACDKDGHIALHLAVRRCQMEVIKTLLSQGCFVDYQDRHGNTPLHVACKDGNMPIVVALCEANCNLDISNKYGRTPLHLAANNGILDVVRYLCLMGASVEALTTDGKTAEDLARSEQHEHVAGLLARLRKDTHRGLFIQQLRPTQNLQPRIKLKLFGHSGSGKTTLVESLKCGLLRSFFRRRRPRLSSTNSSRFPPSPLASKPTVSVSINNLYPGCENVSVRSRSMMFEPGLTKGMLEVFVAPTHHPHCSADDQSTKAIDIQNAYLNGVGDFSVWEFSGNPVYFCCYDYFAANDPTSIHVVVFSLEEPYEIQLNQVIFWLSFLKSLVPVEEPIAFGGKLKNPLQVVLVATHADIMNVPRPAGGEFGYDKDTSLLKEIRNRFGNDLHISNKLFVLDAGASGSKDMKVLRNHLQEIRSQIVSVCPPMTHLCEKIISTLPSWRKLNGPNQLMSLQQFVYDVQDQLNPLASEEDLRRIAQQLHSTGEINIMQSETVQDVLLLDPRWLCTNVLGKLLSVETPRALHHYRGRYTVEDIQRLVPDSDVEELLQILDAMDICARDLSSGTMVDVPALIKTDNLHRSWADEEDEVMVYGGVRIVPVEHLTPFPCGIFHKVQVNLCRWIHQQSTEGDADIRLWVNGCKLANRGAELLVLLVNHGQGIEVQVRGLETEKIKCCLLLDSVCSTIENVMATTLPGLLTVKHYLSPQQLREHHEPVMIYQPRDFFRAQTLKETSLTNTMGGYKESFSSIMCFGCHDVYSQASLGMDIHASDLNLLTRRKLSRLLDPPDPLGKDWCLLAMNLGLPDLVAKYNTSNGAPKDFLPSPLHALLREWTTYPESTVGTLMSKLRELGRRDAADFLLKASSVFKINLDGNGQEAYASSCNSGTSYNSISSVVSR
# [7] = biological target: VEGFR2 (Homo sapiens, UniProt P35968); assay: as above; format: biochemical; parameters: purchased ReactionBiology; conditions: VEGFR2;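 further: VEGFR2 was one member of a ten-kinase screening panel testing marketed FDA-approved drugs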
# Chain of VEGFR2 (P35968 20-1356): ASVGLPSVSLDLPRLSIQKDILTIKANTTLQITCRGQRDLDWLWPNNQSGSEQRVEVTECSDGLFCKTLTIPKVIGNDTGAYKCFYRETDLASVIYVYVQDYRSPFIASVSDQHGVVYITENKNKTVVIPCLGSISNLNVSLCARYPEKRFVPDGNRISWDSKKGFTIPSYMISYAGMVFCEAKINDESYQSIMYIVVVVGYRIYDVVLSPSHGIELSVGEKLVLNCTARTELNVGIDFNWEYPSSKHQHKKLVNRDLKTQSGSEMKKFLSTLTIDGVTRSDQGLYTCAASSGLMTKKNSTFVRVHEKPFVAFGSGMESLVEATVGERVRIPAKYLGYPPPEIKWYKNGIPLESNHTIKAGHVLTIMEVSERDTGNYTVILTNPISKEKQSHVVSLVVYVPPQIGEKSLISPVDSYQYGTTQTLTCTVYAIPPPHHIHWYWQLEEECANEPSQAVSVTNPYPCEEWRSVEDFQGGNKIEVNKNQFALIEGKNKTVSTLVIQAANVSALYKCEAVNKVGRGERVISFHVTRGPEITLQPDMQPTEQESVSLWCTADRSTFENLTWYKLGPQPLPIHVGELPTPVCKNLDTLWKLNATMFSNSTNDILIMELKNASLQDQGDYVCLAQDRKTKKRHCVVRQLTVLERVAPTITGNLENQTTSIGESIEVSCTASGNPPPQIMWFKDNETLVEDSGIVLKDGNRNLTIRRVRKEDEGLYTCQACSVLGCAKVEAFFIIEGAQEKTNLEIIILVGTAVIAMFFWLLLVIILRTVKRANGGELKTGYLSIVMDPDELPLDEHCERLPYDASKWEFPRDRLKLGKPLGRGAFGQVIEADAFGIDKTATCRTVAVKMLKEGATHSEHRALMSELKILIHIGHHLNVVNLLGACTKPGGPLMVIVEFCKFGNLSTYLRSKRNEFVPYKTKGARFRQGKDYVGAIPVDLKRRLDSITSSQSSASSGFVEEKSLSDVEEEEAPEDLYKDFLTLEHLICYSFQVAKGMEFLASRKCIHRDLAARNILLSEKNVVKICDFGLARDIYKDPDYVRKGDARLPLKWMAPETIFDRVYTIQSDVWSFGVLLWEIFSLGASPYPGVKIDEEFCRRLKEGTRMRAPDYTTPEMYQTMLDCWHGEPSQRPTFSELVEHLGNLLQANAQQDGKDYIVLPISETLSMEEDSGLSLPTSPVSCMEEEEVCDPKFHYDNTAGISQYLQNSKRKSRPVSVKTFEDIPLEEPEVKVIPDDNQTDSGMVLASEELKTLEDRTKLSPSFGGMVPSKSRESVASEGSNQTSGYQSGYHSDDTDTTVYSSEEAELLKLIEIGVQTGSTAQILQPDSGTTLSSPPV
# [8] = tested on: human PBMCs (responder cells) with RPMI1788 stimulator cells; assay: Mixed Lymphocyte Reaction (MLR, T cell assay), 3H-thymidine incorporation; format: cell-based; conditions: for IC50: Homo sapiens, RPMI-1788, mean of 4 independent measures, read-out: T-cell efficacy, MLR IC 50 (µM) Mean
# Method: In order to test the efficacy and selectivity of the hit compounds on B-cells, 4 assays were performed: B-cell assay, Mixed Lymphocyte Reaction (MLR), WST-1 assay on RPMI1788 cells (B-cell line) and cytotoxicity WST-1 assay on Jurkat cells (T-cell line). Compounds were prepared as 10 mM stock solutions in dimethylsulfoxide (DMSO)and were tested at 50-10-1-0.1-0.01 and 0.001 μM in the 4 assays.
# Blood samples of healthy volunteers were collected at the Red Cross of Mechelen, Belgium. Each donor consents to the use of their blood for research purposes. […] The human B cell line RPMI1788 (American Type Culture Collection, USA) and the human T cell line Jurkat (European Collection of Cell Cultures, ECACC, England) were maintained in RPMI1640 culture medium (BioWhittaker®, Lonza, Verviers, Belgium) containing 10% foetal calf serum (FCS, HyClone® Thermo Scientific, United Kingdom) and 5 μg/mL gentamicin sulphate (BioWhittaker®, Lonza, Verviers, Belgium) at 37°C and 5% CO2.
# MLR assay (T cell assay): Freshly isolated human PBMCs (responder cells) were resuspended in RPMI1640 medium containing 10% FCS and 5nμg/mL gentamicin sulphate. RPMI1788 cells (stimulator cells) were inactivated by treatment with mitomycin C (Kyowa®, Takeda Belgium, Brussels, Belgium) for 20 min at 37°C, washed and finally suspended in culture medium. An amount of 100 μL of each cell suspension was mixed with 20 μL of diluted compound. The mixed cells were cultured at 37°C for 6 days in 5% CO2. DNA synthesis was assayed by the addition of 10 μCi (methyl-3H) thymidine (Perkin Elmer, Zaventem, Belgium) per well during the last 18 h in culture. Thereafter, the cells were harvested on glass filter paper and the counts per minute determined in a liquid scintillation counter (TopCount, Perkin Elmer, Zaventem, Belgium).
# [9] = tested on: human CD19+ B cells; assay: B-cell assay: IgG production of ODN2006-stimulated primary B cells (AlphaLISA); format: cell-based; conditions: Homo sapiens, B-cell, 168 h; IgG production, ODN2006 0.1 μM, 7 days; mean of 4 independent experiments; read-out: B-cell IC50
# Method: as §1
# Blood samples of healthy volunteers were collected at the Red Cross of Mechelen, Belgium.
# Highly purified naive peripheral human B cells were separated from fresh human PBMCs on magnetic columns by positive selection using CD19 magnetic beads according to the manufacturer’s instructions (MACS Miltenyi Biotech, Leiden, The Netherlands). […] Freshly isolated human CD19+ B cells were then plated at 25 000 cells per well in a 384-well plate (Perkin Elmer, Zaventem, Belgium) in 55 μL in DMEM medium containing 10% FCS and 5 μg/mL gentamicin sulphate. After 7 days of stimulation with 0.1 μM ODN2006 (InvivoGen, Toulouse, France), supernatant was taken for analysis of IgG using the AlphaLISA human IgG kit according to the manufacturer’s instructions (Perkin Elmer, Zaventem, Belgium).
# [10] = 1 uM, Average, read-out: % Enzyme Activity (relative to DMSO controls), Average
# [11] = 1 uM, replicate Data 1, read-out: % Enzyme Activity (relative to DMSO controls), Data 1
# [12] = 1 uM, replicate Data 2, read-out: % Enzyme Activity (relative to DMSO controls), Data 2
# [13] = 10 uM, Average, read-out: % Enzyme Activity (relative to DMSO controls), Average
# [14] = 10 uM, replicate Data 1, read-out: % Enzyme Activity (relative to DMSO controls), Data 1
# [15] = 10 uM, replicate Data 2, read-out: % Enzyme Activity (relative to DMSO controls), Data 2
# [16] = Average, read-out: % Enzyme Activity (relative to DMSO controls), Average
# [17] = replicate Data 1, read-out: % Enzyme Activity (relative to DMSO controls), Data 1
# [18] = replicate Data 2, read-out: % Enzyme Activity (relative to DMSO controls), Data 2
# [19] = compound 1μM, relative to DMSO controls, read-out: % Enzyme activity at 1μM
# [20] = compound 10μM, relative to DMSO controls, read-out: % Enzyme activity at 10μM
SMILES,"remaining activity at 1 µM [1, 10] [%]","remaining activity at 1 µM [1, 11] [%]","remaining activity at 1 µM [1, 12] [%]","remaining activity at 10 µM [1, 13] [%]","remaining activity at 10 µM [1, 14] [%]","remaining activity at 10 µM [1, 15] [%]",IC50 at 48 h [2] [µM],"remaining activity at 1 µM [3, 16] [%]","remaining activity at 1 µM [3, 17] [%]","remaining activity at 1 µM [3, 18] [%]","remaining activity at 10 µM [3, 16] [%]","remaining activity at 10 µM [3, 17] [%]","remaining activity at 10 µM [3, 18] [%]","remaining activity at 1 µM [4, 16] [%]","remaining activity at 1 µM [4, 17] [%]","remaining activity at 1 µM [4, 18] [%]","remaining activity at 10 µM [4, 16] [%]","remaining activity at 10 µM [4, 17] [%]","remaining activity at 10 µM [4, 18] [%]",IC50 at 48 h [5] [µM],further results
"C[C@]12CC[C@@H]3c4ccc(O)cc4CC[C@H]3[C@@H]1CC[C@@H]2O [Estradiol, reference compound]",100,99.8,100,91.9,91.3,92.5,19.5,92.1,95.7,88.5,89,94.9,83,101,99.6,102,96.5,98.7,94.2,35.9,"remaining activity at 1 µM [6, 10]: 111%; remaining activity at 1 µM [6, 11]: 98%; remaining activity at 1 µM [6, 12]: 123%; remaining activity at 10 µM [6, 13]: 69%; remaining activity at 10 µM [6, 14]: 68.3%; remaining activity at 10 µM [6, 15]: 69.7%; remaining activity at 1 µM [6, 19]: 111%; remaining activity at 10 µM [6, 20]: 69%; remaining activity at 1 µM [7, 16]: 115%; remaining activity at 1 µM [7, 17]: 115%; remaining activity at 1 µM [7, 18]: 115%; remaining activity at 10 µM [7, 16]: 105%; remaining activity at 10 µM [7, 17]: 106%; remaining activity at 10 µM [7, 18]: 103%; IC50 [8]: 21.2 µM; Selectivity Index (SI) MLR/B-cell ([8]; ratio of IC50 values): 0.63; pIC50 [9]: 4.47"
"NC(=O)c1cccnc1 [Niacinamide, reference compound]",69.3,69,69.6,69.7,68.3,71.1,> 50,87.3,81,93.6,76.4,65,87.8,113,107,119,101,97.9,105,> 50,"remaining activity at 1 µM [1, 19]: 69.3%; remaining activity at 10 µM [1, 20]: 69.7%; remaining activity at 1 µM [6, 10]: 111%; remaining activity at 1 µM [6, 11]: 112%; remaining activity at 1 µM [6, 12]: 110%; remaining activity at 10 µM [6, 13]: 100%; remaining activity at 10 µM [6, 14]: 97.7%; remaining activity at 10 µM [6, 15]: 103%; remaining activity at 1 µM [7, 16]: 96.4%; remaining activity at 1 µM [7, 17]: 97.5%; remaining activity at 1 µM [7, 18]: 95.4%; remaining activity at 10 µM [7, 16]: 95.7%; remaining activity at 10 µM [7, 17]: 90.6%; remaining activity at 10 µM [7, 18]: 101%; IC50 [8]: > 50 µM; pIC50 [9]: < 4.30"
